pIC50: −log10 of the molar value. Where a name gives a salt, the structure may show the parent alone. Blank lines part the entries; values can stand above or below the compound they belong to.
Key:
Type in all cases: biochemical
Bovine LOX = Bovine LOX (Bos taurus (Bovine), UniProt P33072); assay: LOX inhibition, peroxidase-coupled Amplex Red amine oxidase assay; settings: 30 min preincubation at 37° C., putrescine substrate
Description: (§1) Method to Determine the Ability of Compounds of the Invention to Inhibit LOX and LOXL1-4 from Different Sources
Lysyl oxidase (LOX) is an extracellular copper dependent enzyme which oxidizes peptidyl lysine and hydroxylysine residues in collagen and lysine residues in elastin to produce peptidyl alpha-aminoadipic-delta-semialdehydes. […] There are five LOX family members; these are LOX, LOXL1, LOXL2, LOXL3 and LOXL4. LOX and LOXL family members can be acquired as recombinant active proteins from commercial sources, or extracted from animal tissues like bovine aorta, tendons, pig skin; or prepared from cell cultures. The inhibitory effects of the compounds of the present invention were tested against the given LOX-LOXL preparation using a high-throughput coupled colorimetric method (Holt A. and Palcic M., A peroxidase-coupled continuous absorbance plate-reader assay for flavin monoamine oxidases, copper-containing amine oxidases and related enzymes. Nat. Protoc. 2006; 1: 2498-2505). The assay was developed using either 384 or 96 well format. Briefly, in a standard 384 well plate assay 25 μL of a dilution of any of the isoenzymes and orthologues in 1.2 M urea, 50 mM sodium borate buffer (pH 8.2) were added into each well in the presence of 1 μM mofegiline and 0.5 mM pargyline (to inhibit SSAO and MAO-B and MAO-A, respectively). […] of a reaction mixture containing twice the KM concentration of putrescine (Sigma Aldrich, e.g. 20 mM for LOX, or 10 mM for LOXL2 and LOXL3), 120 μM Amplex Red (Sigma Aldrich) and 1.5 U/mL horseradish peroxidase (Sigma Aldrich) prepared in 1.2 M urea, 50 mM sodium borate buffer (pH 8.2) were then added to the corresponding wells. The above volumes were doubled in the case of 96 wells plate. The fluorescence (RFU) was read every 2.5 min for 30 min at a range of temperatures from 37° to 45° C., excitation 565 nm and emission 590 (Optima; BMG labtech). The slope of the kinetics for each well was calculated using MARS data analysis software (BMG labtech) and this value was used to deduce the IC50 value (Dotmatics).

Human LOXL2 = Human LOXL2 (Homo sapiens (Human), UniProt Q9Y4K0); assay: LOXL2 inhibition, peroxidase-coupled Amplex Red amine oxidase assay; settings: 30 min preincubation at 37° C., putrescine substrate
Description: as §1
Lysyl oxidase (LOX) is an extracellular copper dependent enzyme which oxidizes peptidyl lysine and hydroxylysine residues in collagen and lysine residues in elastin to produce peptidyl alpha-aminoadipic-delta-semialdehydes. […] There are five LOX family members; these are LOX, LOXL1, LOXL2, LOXL3 and LOXL4. LOX and LOXL family members can be acquired as recombinant active proteins from commercial sources, or extracted from animal tissues like bovine aorta, tendons, pig skin; or prepared from cell cultures. The inhibitory effects of the compounds of the present invention were tested against the given LOX-LOXL preparation using a high-throughput coupled colorimetric method (Holt A. and Palcic M., A peroxidase-coupled continuous absorbance plate-reader assay for flavin monoamine oxidases, copper-containing amine oxidases and related enzymes. Nat. Protoc. 2006; 1: 2498-2505). The assay was developed using either 384 or 96 well format. Briefly, in a standard 384 well plate assay 25 μL of a dilution of any of the isoenzymes and orthologues in 1.2 M urea, 50 mM sodium borate buffer (pH 8.2) were added into each well in the presence of 1 μM mofegiline and 0.5 mM pargyline (to inhibit SSAO and MAO-B and MAO-A, respectively). Test compounds were dissolved in DMSO and tested in a Concentration Response Curve (CRC) with 11 data points, typically in the micromolar or nanomolar range after incubation with the enzyme for 30 min at 37° C. Twenty five L of a reaction mixture containing twice the KM concentration of putrescine (Sigma Aldrich, e.g. 20 mM for LOX, or 10 mM for LOXL2 and LOXL3), 120 μM Amplex Red (Sigma Aldrich) and 1.5 U/mL horseradish peroxidase (Sigma Aldrich) prepared in 1.2 M urea, 50 mM sodium borate buffer (pH 8.2) were then added to the corresponding wells. The above volumes were doubled in the case of 96 wells plate. The fluorescence (RFU) was read every 2.5 min for 30 min at a range of temperatures from 37° to 45° C., excitation 565 nm and emission 590 (Optima; BMG labtech). The slope of the kinetics for each well was calculated using MARS data analysis software (BMG labtech) and this value was used to deduce the IC50 value (Dotmatics).

[1] = target: human recombinant SSAO/VAP-1 (Homo sapiens (Human), UniProt Q16853); assay: Inhibition of human recombinant SSAO/VAP-1 amine oxidase activity; settings: 30 min preincubation at 37° C., 600 μM benzylamine
Method: Method to Determine the Ability of Compounds of Formula I to Inhibit Human Recombinant SSAO/VAP-1
Human recombinant SSAO/VAP-1 amine oxidase activity was determined using the coupled colorimetric method as described for monoamine oxidase, copper-containing amine oxidases and related enzymes (Holt A. and Palcic M., A peroxidase-coupled continuous absorbance plate-reader assay for flavin monoamine oxidases, copper-containing amine oxidases and related enzymes. Nat Protoc 2006; 1: 2498-2505). Briefly, a cloned cDNA template corresponding to residues 34-763 of human SSAO/VAP-1, and incorporating a mouse Ig kappa (κ) signal sequence, N-terminal flag epitope tag and tobacco etch virus (TEV) cleavage site, was assembled in a mammalian expression vector (pLO-CMV) by Geneart AG. This vector containing human SSAO/VAP-1 residues was transfected into CHO-K1 glycosylation mutant cell line, Lec 8. A clone stably expressing human SSAO/VAP-1 was isolated and cultured in large scale. Active human SSAO/VAP-1 was purified and recovered using immunoaffinity chromatography. This was used as the source for SSAO/VAP-1 activity. A high-throughput colorimetric assay was developed using either 96 or 384 well format. Briefly, in a standard 96 well plate assay 50 μL of purified human SSAO/VAP-1 (0.25 μg/mL) in 0.1 M sodium phosphate buffer (pH 7.4) was added into each well. Test compounds were dissolved in DMSO and tested in a Concentration Response Curve (CRC) with 4-11 data points, typically in the micromolar or nanomolar range after incubation with human SSAO/VAP-1 for 30 min at 37° C. After 30 min incubation, 50 μL of the reaction mixture containing 600 μM benzylamine (Sigma Aldrich), 120 μM Amplex Red (Sigma Aldrich) and 1.5 U/mL horseradish peroxidase (Sigma Aldrich) prepared in 0.1 M sodium phosphate buffer (pH 7.4) were added to the corresponding well. The fluorescence unit (RFU) was read every 2.5 min for 30 min at 37° C. excitation 565 nm and emission 590 (Optima; BMG labtech). The slope of the kinetics for each well was calculated using MARS data analysis software (BMG labtech) and this value was used to deduce the IC50 value (Dotmatics).

Recombinant human MAO-B = Recombinant human MAO-B (Homo sapiens (Human), UniProt P27338); assay: Inhibition of human recombinant MAO-B; settings: benzylamine 100 μM
Method: Method to Determine the Ability of Compounds of Formula I to Inhibit Human Recombinant MAO-B
The specificity of the compounds of this invention was tested by determining their ability to inhibit MAO-B activities in vitro. Recombinant human MAO-B (0.06 mg/mL; Sigma Aldrich) was used as source of MAO-B enzyme activities. The assay was performed in a similar way as for human SSAO/VAP-1 (Example 66) except, the substrate benzylamine was used at 100 μM.

Sequence of human recombinant SSAO/VAP-1 (Q16853 34-763): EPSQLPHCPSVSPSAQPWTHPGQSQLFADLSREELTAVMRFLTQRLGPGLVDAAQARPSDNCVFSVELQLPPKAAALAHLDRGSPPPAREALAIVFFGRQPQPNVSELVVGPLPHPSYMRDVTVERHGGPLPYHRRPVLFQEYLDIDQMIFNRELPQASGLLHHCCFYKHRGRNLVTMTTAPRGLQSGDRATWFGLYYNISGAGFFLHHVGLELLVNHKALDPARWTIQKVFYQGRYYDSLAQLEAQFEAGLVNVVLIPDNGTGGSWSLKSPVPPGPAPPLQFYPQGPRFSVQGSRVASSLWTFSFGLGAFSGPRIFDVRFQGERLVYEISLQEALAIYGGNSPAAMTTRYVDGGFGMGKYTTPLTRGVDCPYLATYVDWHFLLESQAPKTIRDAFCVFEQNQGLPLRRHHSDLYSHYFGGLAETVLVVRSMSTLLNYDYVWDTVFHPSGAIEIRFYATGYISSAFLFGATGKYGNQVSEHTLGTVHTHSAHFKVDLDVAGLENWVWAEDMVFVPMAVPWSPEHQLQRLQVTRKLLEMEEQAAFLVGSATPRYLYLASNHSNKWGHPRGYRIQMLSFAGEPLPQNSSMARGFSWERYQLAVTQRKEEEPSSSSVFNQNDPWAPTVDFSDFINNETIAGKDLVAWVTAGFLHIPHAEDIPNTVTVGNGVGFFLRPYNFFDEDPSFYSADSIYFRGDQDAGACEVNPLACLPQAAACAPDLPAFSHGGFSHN
Sequence of Recombinant human MAO-B (P27338 whole entry): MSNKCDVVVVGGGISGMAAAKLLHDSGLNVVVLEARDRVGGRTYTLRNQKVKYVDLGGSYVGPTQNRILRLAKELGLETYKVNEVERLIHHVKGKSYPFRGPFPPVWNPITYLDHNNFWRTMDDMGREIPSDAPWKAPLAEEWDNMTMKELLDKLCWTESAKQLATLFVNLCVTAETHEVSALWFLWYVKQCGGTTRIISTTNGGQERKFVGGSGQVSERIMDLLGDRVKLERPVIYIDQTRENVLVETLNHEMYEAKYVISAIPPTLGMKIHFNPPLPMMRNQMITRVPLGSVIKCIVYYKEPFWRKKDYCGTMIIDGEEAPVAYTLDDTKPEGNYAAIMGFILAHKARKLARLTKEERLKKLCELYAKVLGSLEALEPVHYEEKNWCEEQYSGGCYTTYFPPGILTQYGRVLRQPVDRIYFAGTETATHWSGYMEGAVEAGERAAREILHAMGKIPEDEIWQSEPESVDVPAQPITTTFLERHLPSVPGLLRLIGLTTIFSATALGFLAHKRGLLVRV
Sequence of Bovine LOX (P33072 170-418): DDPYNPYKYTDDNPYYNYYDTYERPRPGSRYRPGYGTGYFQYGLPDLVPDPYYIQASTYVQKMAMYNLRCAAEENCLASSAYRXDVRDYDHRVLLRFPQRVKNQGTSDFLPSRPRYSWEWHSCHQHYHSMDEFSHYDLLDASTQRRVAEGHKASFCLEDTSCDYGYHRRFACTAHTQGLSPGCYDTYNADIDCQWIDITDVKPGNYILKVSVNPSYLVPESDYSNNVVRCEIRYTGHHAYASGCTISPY
Sequence of Human LOXL2 (Q9Y4K0 26-774): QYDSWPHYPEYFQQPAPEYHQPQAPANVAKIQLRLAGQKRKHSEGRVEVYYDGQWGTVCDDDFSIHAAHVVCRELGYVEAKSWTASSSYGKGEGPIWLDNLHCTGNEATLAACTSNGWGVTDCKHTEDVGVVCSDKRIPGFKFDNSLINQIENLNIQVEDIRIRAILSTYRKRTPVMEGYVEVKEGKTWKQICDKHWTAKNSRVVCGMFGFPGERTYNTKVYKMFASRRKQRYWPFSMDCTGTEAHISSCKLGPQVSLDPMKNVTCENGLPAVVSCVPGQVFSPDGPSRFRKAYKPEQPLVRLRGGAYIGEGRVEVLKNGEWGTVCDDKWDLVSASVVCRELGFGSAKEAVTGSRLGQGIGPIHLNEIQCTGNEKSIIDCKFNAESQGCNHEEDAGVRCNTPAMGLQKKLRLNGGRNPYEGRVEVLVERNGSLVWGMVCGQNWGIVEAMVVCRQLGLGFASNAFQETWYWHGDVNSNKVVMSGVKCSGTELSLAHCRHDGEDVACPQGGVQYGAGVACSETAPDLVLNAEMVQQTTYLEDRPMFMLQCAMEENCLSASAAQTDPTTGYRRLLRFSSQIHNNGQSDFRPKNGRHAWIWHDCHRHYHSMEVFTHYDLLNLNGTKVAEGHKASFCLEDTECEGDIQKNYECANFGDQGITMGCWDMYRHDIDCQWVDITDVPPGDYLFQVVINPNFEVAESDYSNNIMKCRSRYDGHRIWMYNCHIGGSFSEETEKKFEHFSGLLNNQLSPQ

Structure (SMILES): Cc1c(-c2cccc(S(C)(=O)=O)c2)c2nc(CF)ccc2n1C/C(F)=C/CN [Compound 115, (Z)-3-fluoro-4-(5-(fluoromethyl)-2-methyl-3-(3-(methylsulfonyl)phenyl)-1H-pyrrolo[3,2-b]pyridin-1-yl)but-2-en-1-amine Dihydrochloride]
pIC50 (Bovine LOX): < 6.52 | pIC50 (Human LOXL2): > 6.52

Structure (SMILES): Cc1c(-c2cccc(S(=O)(=O)N(C)C)c2)c2nc(C(=O)O)ccc2n1C/C(F)=C/CN [Compound 43, (Z)-1-(4-amino-2-fluorobut-2-en-1-yl)-3-(3-(N,N-dimethylsulfamoyl)phenyl)-2-methyl-1H-pyrrolo[3,2-b]pyridine-5-carboxylic acid]
pIC50 (Bovine LOX): < 6.52 | pIC50 (Human LOXL2): > 6.52 | pIC50 [1]: < 5.52 | pIC50 (Recombinant human MAO-B): < 5.52

Structure (SMILES): CCOC(=O)c1ccc2c(c1)c(-c1ccc(F)cc1)c(C)n2C/C(F)=C/CN [Compound 24, ethyl (Z)-1-(4-amino-2-fluorobut-2-en-1-yl)-3-(4-fluorophenyl)-2-methyl-1H-indole-5-carboxylate]
pIC50 (Bovine LOX): < 6.52 | pIC50 (Human LOXL2): > 6.52 | pIC50 [1]: < 5.52 | pIC50 (Recombinant human MAO-B): < 5.52

Structure (SMILES): Cc1c(-c2c(C)n(C/C(F)=C/CN)c3ccc(C(=O)O)cc23)cccc1S(=O)(=O)N(C)C [Compound 13, (Z)-1-(4-amino-2-fluorobut-2-en-1-yl)-3-(3-(N,N-dimethylsulfamoyl)-2-methylphenyl)-2-methyl-1H-indole-5-carboxylic acid]
pIC50 (Bovine LOX): < 6.52 | pIC50 (Human LOXL2): > 6.52 | pIC50 [1]: < 5.52 | pIC50 (Recombinant human MAO-B): < 5.52

Structure (SMILES): Cc1ccc(S(=O)(=O)N(C)C)cc1-c1c(C)n(C/C(F)=C/CN)c2c(F)cc(Cl)cc12 [Compound 82, (Z)-3-(1-(4-amino-2-fluorobut-2-en-1-yl)-5-chloro-7-fluoro-2-methyl-1H-indol-3-yl)-N,N,4-trimethylbenzenesulfonamide]
pIC50 (Bovine LOX): < 6.52 | pIC50 (Human LOXL2): > 6.52 | pIC50 [1]: < 5.52 | pIC50 (Recombinant human MAO-B): < 5.52

Structure (SMILES): Cc1c(-c2cncc(S(=O)(=O)N(C)C)c2)c2ccc(Cl)cc2n1C/C(F)=C/CN [Compound 67, (Z)-5-(1-(4-amino-2-fluorobut-2-en-l-yl)-6-chloro-2-methyl-1H-indol-3-yl)-N,N-dimethylpyridine-3-sulfonamide, Dihydrochloride]
pIC50 (Bovine LOX): < 6.52 | pIC50 (Human LOXL2): > 6.52 | pIC50 [1]: < 5.52 | pIC50 (Recombinant human MAO-B): < 5.52

Structure (SMILES): Cc1c(-c2cccc(S(=O)(=O)N(C)C)c2)c2nc(C(F)(F)F)ccc2n1C/C(F)=C/CN [Compound 110, (Z)-3-(1-(4-amino-2-fluorobut-2-en-1-yl)-2-methyl-5-(trifluoromethyl)-1H-pyrrolo[3,2-b]pyridin-3-yl)-N,N-dimethylbenzenesulfonamide]
pIC50 (Bovine LOX): < 6.52 | pIC50 (Human LOXL2): > 6.52 | pIC50 [1]: < 5.52 | pIC50 (Recombinant human MAO-B): < 5.52

Structure (SMILES): Cc1c(-c2ccncc2)c2cc(S(C)(=O)=O)ccc2n1C/C(F)=C/CN [Compound 88, (Z)-3-fluoro-4-(2-methyl-5-(methylsulfonyl)-3-(pyridin-4-yl)-1H-indol-1-yl)but-2-en-1-amine]
pIC50 (Bovine LOX): < 6.52 | pIC50 (Human LOXL2): > 6.52 | pIC50 [1]: < 5.52 | pIC50 (Recombinant human MAO-B): < 5.52

Structure (SMILES): Cc1c(-c2cncc(S(=O)(=O)N(C)C)c2)c2cc(C3CC3)ccc2n1C/C(F)=C/CN [Compound 79, (Z)-5-(1-(4-amino-2-fluorobut-2-en-1-yl)-5-cyclopropyl-2-methyl-1H-indol-3-yl)-N,N-dimethylpyridine-3-sulfonamide]
pIC50 (Bovine LOX): < 6.52 | pIC50 (Human LOXL2): > 6.52 | pIC50 [1]: < 5.52 | pIC50 (Recombinant human MAO-B): < 5.52

Structure (SMILES): COc1ccc2c(n1)c(-c1cccc(SC)c1)c(C)n2C/C(F)=C/CN [Compound 68, (Z)-3-fluoro-4-(5-methoxy-2-methyl-3-(3-(methylthio)phenyl)-1H-pyrrolo[3,2-b]pyridin-1-yl)but-2-en-1-amine Dihydrochloride]
pIC50 (Bovine LOX): < 6.52 | pIC50 (Human LOXL2): > 6.52 | pIC50 [1]: < 5.52 | pIC50 (Recombinant human MAO-B): < 5.52

Structure (SMILES): Cc1c(-c2cccc(S(=O)(=O)C(C)C)c2)c2nc(C(C)(C)O)ccc2n1C/C(F)=C/CN [Compound 117, (Z)-2-(1-(4-amino-2-fluorobut-2-en-1-yl)-3-(3-(isopropylsulfonyl)phenyl)-2-methyl-1H-pyrrolo[3,2-b]pyridin-5-yl)propan-2-ol Dihydrochloride]
pIC50 (Bovine LOX): < 6.52 | pIC50 (Human LOXL2): > 6.52

pIC50 (Bovine LOX): < 6.52 | pIC50 (Human LOXL2): > 6.52
Structure (SMILES): CCS(=O)(=O)c1cccc(-c2c(C(C)C)n(C/C(F)=C/CN)c3ccc(C)nc23)c1 [Compound 113, (Z)-4-(3-(3-(ethylsulfonyl)phenyl)-2-isopropyl-5-methyl-1H-pyrrolo[3,2-b]pyridin-1-yl)-3-fluorobut-2-en-1-amine Dihydrochloride]

Structure (SMILES): CCS(=O)(=O)c1cccc(-c2c(C)n(C/C(F)=C/CN)c3ccc(C)nc23)c1 [Compound 114, (Z)-4-(3-(3-(ethylsulfonyl)phenyl)-2,5-dimethyl-1H-pyrrolo[3,2-b]pyridin-1-yl)-3-fluorobut-2-en-1-amine Dihydrochloride]
pIC50 (Bovine LOX): < 6.52 | pIC50 (Human LOXL2): > 6.52

pIC50 (Bovine LOX): < 6.52 | pIC50 (Human LOXL2): > 6.52
Structure (SMILES): Cc1c(-c2cccc(S(C)(=O)=O)c2)c2nc(C(C)(C)O)ccc2n1C/C(F)=C/CN [Compound 116, (Z)-2-(1-(4-amino-2-fluorobut-2-en-1-yl)-2-methyl-3-(3-(methylsulfonyl)phenyl)-1H-pyrrolo[3,2-b]pyridin-5-yl)propan-2-ol Dihydrochloride]
